# Data published in patent publication US20190211020A1 (Agency for Science, Technology and Research, priority 2012, published 2019).
# pIC50: −log10 of the molar value. “Also recorded” adds a separate entry of the source. Read-outs that look alike come from different tables or passages of the source.
# Legend:
# [1] = system: eIF4E Ser209 phosphorylation in Hela cells; assay: MNK cell-based assay (AlphaScreen SureFire, eIF4E Ser209 phosphorylation); conditions: Homo sapiens; eIF4E Ser209 phosphorylation, Hela cells, 2 hours; read-out: IC50 Hela
# In short: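 Hela cells (30,000/well) exposed to test compound in serum-free medium for 2 h at 37 °C, then lysed. Phospho-Ser209 eIF4E quantified by AlphaScreen SureFire; IC50 obtained by non-linear regression of signal versus log compound concentration.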
# [2] = system: D1.1 (acute T cell leukemia); assay: Cell cytotoxicity assay (CellTiter-Glo), D1.1; assay type: cell-based; conditions: T-cell, cell viability
# Protocol: (§1) Cancer cell lines, MV-4-11 (leukemia), P116.c139 (acute T cell leukemia) and D1.1 (acute T cell leukemia), were purchased from ATCC and cultured according to supplier's recommendations. K562 cells (myelogenous leukemia) over-expressing eIF4E, were also used for the cytotoxicity assay. For cells treated for 48 hours, 5000 cells were seeded in 70 μl of growth medium in black, flat-bottom 96-well plate. For cells treated for six days, 1000 cells were seeded in 70 μl of growth medium in black, flat-bottom 96-well plate. […] 50 μl of the diluted compounds was added to the cells and incubated at 37° C. in 5% CO2. After 48 hours or six days treatment, cell viability was determined by CellTiter-Glo Luminescent Cell Viability Assay (Promega, Madison, Wis.). 120 μl of the reagent was added to the cells and luminescence was measured using Tecan Safire Reader. Data was analysed with Graphpad Prism software and the figures represented indicate the half maximal inhibitory concentration (IC50). Error bars denote standard deviation (SD).
# [3] = system: eIF4E phosphorylation in K562 cells; assay: Western blot of eIF4E phosphorylation in K562 cells; assay type: cell-based; conditions: various concentrations, 24 h
# Protocol: (§2) K562 cell line was obtained from the ATCC, and grown in RPMI supplemented with 10% FCS, L-glutamine, and penicillin/streptomycin.
# (§3) Exponentially growing cells were plated at 2×10^5 cells/ml, and whole cell lysate processed for western blot analysis using antibodies recognizing eIF4E, phospho-eIF4E (Cell signaling Technology),
# MV-4-11 (leukemia) = assay: Cell cytotoxicity assay (CellTiter-Glo), MV-4-11; assay type: cell-based; conditions: Homo sapiens, cell viability
# Protocol: as §1
# [4] = system: eIF4E phosphorylation in cerebellar neurons in brain sections; assay: Immunoblot of phospho-eIF4E in mouse cerebellar brain slices; conditions: 40 μM CGP57380 or 50 nM ETC7168 for 45 mins
# Protocol: For biochemical analyses mice were sacrificed by CO2 inhalation, the cerebellum dissected and rapidly placed in a vibratome chamber and sectioned at 300 μm in cold oxygenated aCSF (in mM: 125 NaCl, 2.5 KCl, 1 MgCl2, 2 CaCl2, 1.25 NaH2PO4, 20 Glucose, 26 NaHCO3, 95% O2/5% CO2). Slices obtained were maintained at 33° C. in oxygenated aCSF and treated with 40 μM CGP57380 or 50 nM ETC7168 for 45 mins and tissues were subsequently snap frozen in liquid nitrogen. Tissues were lysed in 25 mM Tris-HCl, 150 mM NaCl, 1% Triton, 0.2% SDS, 5 mM EDTA, 2 mM DTT, 1 mM NaF, 1 mM Na3VO4 containing protease inhibitor cocktail. The soluble fractions were analyzed by immunoblotting with primary antibodies for 24 hrs at 4° C. followed by detection with secondary antibodies for enhanced chemoluminescent detection. […] Behavioral testing was performed using a well-accepted test for autism that consists of quantitative analysis of ultrasonic vocalizations emitted by male mice exposed to females in estrous^75. […] Prior to testing, the estrous cycle of each female mouse was assessed and only females in estrous were kept for testing. […] Subsequently a female in estrous was introduced in the arena, and ultrasonic vocalizations were recorded for 3 min using the Avisoft system (Avisoft Bioacoustics) with a frequency bandwidth of 30 kHz to 100 kHz. The number and length of ultrasonic vocalizations were quantified. […]
# BCR-ABL = target: T1, BCR-ABL (Homo sapiens, UniProt P00519); assay: Western blot of CrK1 phosphorylation (BCR-ABL activity) in K562 cells; assay type: cell-based
# T1 construct: host or cells: K562; the other entry of the earlier key: BCR (P11274, Breakpoint cluster region protein)
# Protocol: as §2, §3
# [5] = system: MV-4-11, P116.c139 and D1.1 cell lines; assay: Cell cytotoxicity assay, the three test cell lines taken together; assay type: cell-based; conditions: Homo sapiens, MV4-11; regardless of the treatment duration (48 hours or 6 days)
# Protocol: as §1
# [6] = system: K562 cells (myelogenous leukemia) over-expressing eIF4E; assay: Cell cytotoxicity assay (CellTiter-Glo), K562; assay type: cell-based; conditions: for pIC50: Homo sapiens, cell viability
# Protocol: as §1
# T1 sequence (P00519 with tags, fused parts or gaps): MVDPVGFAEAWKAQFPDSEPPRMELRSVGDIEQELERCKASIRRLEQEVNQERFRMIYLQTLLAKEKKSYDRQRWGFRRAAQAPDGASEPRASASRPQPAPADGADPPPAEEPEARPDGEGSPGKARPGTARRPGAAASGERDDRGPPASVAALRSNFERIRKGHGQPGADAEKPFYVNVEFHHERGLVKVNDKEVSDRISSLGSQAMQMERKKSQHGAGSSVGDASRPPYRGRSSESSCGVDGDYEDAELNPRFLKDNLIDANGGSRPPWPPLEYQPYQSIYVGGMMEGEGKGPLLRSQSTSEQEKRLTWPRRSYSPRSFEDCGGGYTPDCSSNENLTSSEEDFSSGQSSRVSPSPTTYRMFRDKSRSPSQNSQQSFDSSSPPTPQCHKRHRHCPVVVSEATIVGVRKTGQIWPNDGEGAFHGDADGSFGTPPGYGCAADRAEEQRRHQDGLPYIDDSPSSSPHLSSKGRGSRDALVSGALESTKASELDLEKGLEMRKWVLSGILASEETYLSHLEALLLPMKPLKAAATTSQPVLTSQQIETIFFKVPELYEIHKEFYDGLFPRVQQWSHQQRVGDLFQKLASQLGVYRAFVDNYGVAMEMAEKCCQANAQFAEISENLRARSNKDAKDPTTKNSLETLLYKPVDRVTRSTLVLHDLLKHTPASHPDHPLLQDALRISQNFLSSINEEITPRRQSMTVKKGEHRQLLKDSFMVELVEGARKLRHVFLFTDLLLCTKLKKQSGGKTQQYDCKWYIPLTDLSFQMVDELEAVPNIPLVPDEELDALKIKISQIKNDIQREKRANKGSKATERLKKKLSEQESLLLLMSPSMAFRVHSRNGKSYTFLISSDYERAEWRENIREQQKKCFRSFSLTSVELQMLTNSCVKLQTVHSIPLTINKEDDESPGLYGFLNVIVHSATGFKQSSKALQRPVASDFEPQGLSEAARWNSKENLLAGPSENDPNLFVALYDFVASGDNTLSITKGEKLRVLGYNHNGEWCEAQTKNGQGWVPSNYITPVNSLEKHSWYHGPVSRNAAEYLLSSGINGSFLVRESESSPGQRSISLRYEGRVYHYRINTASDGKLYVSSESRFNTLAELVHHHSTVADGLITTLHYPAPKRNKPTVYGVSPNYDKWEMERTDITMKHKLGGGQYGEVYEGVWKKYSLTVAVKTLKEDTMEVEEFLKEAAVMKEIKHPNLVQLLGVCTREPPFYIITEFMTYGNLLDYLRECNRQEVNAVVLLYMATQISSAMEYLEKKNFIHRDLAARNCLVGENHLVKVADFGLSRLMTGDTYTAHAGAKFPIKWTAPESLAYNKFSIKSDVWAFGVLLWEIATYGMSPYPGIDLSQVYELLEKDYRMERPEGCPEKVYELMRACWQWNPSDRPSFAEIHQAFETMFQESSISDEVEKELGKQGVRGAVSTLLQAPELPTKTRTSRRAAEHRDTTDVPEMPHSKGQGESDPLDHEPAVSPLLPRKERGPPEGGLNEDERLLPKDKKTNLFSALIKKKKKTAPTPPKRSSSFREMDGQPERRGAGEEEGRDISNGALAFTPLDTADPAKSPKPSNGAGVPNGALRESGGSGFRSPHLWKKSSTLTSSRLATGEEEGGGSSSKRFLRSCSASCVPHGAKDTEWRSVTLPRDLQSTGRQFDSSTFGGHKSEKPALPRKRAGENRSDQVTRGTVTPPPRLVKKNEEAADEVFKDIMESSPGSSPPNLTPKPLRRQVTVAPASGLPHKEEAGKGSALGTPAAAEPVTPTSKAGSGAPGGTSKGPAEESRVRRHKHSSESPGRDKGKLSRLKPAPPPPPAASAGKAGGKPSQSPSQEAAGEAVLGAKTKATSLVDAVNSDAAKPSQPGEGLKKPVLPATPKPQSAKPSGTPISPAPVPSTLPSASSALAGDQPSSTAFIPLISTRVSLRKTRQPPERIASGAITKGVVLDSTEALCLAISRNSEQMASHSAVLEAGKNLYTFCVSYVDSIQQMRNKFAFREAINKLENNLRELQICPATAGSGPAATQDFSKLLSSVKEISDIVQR
structure (smiles),measurement,setting,value
"N#Cc1ccc(-c2cnc3ccc(-c4ccc(C(=O)N5CCOCC5)cc4)nn23)cc1 [Example 62, 4-(6-(4-(morpholine-4-carbonyl)phenyl)imidazo[1,2-b]pyridazin-3-yl)benzonitrile]",pIC50,[1],> 6.00
same,pIC50,"[2]; 144 h, 6 days, read-out: IC50 after 6 days of treatment, D1.1",5.77
same,pIC50,"[2]; 48 hours, read-out: IC50 after 48 hours of treatment, D1.1",5.80
same,"eIF4E phosphorylation in K562 (BC-CML cell line), Western blot",[3],prevent eIF4E phosphorylation; also recorded: decrease in eIF4E phosphorylation
same,pIC50,"MV-4-11 (leukemia); MV4-11, 144 h, 6 days, read-out: IC50 after 6 days of treatment, MV-4-11",6.70
same,pIC50,"MV-4-11 (leukemia); MV4-11, 48 hours, read-out: IC50 after 48 hours of treatment, MV-4-11",6.10
same,eIF4E phosphorylation in cerebellar brain sections,[4],inhibit eIF4E phosphorylation
same,BCR-ABL activity (phosphorylation of CrK1) in K562 cells,BCR-ABL,decrease in BCR-ABL activity
same,pIC50,[5],≥ 5.70
same,pIC50,"[6]; K562, 144 h, 6 days, read-out: IC50 after 6 days of treatment, K562",5.51
same,pIC50,"[6]; K562, 48 hours, read-out: IC50 after 48 hours of treatment, K562",5.12
same,"change of IC50 when treatment duration was extended from 48 hours to 6 days, K562",[6]; K562 cells over-expressing eIF4E,reduced by more than half
